# In patent publication US20220251153A1, “PEPTIDES FOR THE TREATMENT OF RENAL DISORDERS” (THE GEORGE WASHINGTON UNIVERSITY, priority 2019, published 2022):
# Experiments:
# Format in all cases: in vivo, mouse
# [1] = system: C57Bl/6 mice with unilateral ureter obstruction (UUO); assay: Sirius Red staining of kidney sections, UUO model of renal fibrosis; conditions: 3 mg/kg subcutaneously the day before and daily for 14 days after UUO
# Description: The effect of ND-13 on renal disease was then assessed. Unilateral ureter obstruction (UUO) was chosen as a model of renal disease to determine if ND-13 has a protective effect. The UUO model is an known model of human and animal kidney disease, which mimics the effects of chronic kidney disease and diabetes (i.e., diabetic nephropathy), due to its capability of generating a progressive renal (tubule interstitial) fibrosis and has advantages of good reproducibility, a short time course and the presence of a contralateral kidney as control.
# C57Bl/6 control mice as well as DJ-1 knockout mice were subjected to UUO in order to examine mechanisms involved in renal tubule interstitial fibrosis in vivo and to determine if ND-13 has a protective effect against renal disease. DJ-1 knockout mice used herein were from the original F2 hybrid strain (129/SvXC57BL/6J) that contained the mutated DJ-1 allele (DJ-1−/−) backcrossed to wild-type C57BL/6J for >20 generations and genotyped. […]
# Renal interstitial fibrosis was assessed in the mice by Sirius Red staining. […] Sirius Red staining was examined with an Olympus BX-41 microscope and the amount of collagen in the kidney was quantified by ImageJ software. Two images of about 70% of the renal cortical sections were used in the quantification. […]
# [2] = system: C57Bl/6 mice with unilateral ureter obstruction (UUO); assay: Urinary NGAL ELISA after UUO; conditions: urine 14 days after UUO, 3 mg/kg subcutaneously daily
# From the text: (§1) C57Bl/6 control mice as well as DJ-1 knockout mice were subjected to UUO in order to examine mechanisms involved in renal tubule interstitial fibrosis in vivo and to determine if ND-13 has a protective effect against renal disease. DJ-1 knockout mice used herein were from the original F2 hybrid strain (129/SvXC57BL/6J) that contained the mutated DJ-1 allele (DJ-1−/−) backcrossed to wild-type C57BL/6J for >20 generations and genotyped. Prior to UUO, ND-13 peptide and scrambled control peptide (3 mg/kg diluted in […] of saline) were injected subcutaneously to C57Bl/6 and DJ-1 knockout mice the day before performing the complete UUO. For UUO surgery, the procedure was performed as follows. Briefly, mice were anesthetized with isofluorane (3-5% for induction and 1-3% for maintenance) and divided into two experimental groups: the UUO group and the sham operation group. In the UUO group, mice were shaved on the left side of the abdomen, a vertical incision was made through the skin with a scalpel and the skin was retracted. A second incision was made through the peritoneum to expose the kidney. The left ureter was ligated twice 15 mm below the renal pelvis with surgical silk and the ureter was then severed between the two ligatures. Then, the ligated kidney was placed gently back into its correct anatomical position and sterile saline was added to replenish loss of fluid. […]
# [3] = system: DJ-1 knockout mice with unilateral ureter obstruction (UUO); assay: Urinary NGAL ELISA after UUO; conditions: urine 14 days after UUO, 3 mg/kg subcutaneously daily
# From the text: as §1
# [4] = system: TNF-alpha, IL-6, Col1a1 and TGF-beta mRNA in kidneys of C57Bl/6 mice with UUO; assay: qRT-PCR of renal inflammatory and fibrotic marker mRNA after UUO; conditions: 14 days after UUO, normalized by GAPDH
# From the text: (§2) C57Bl/6 control mice as well as DJ-1 knockout mice were subjected to UUO in order to examine mechanisms involved in renal tubule interstitial fibrosis in vivo and to determine if ND-13 has a protective effect against renal disease. DJ-1 knockout mice used herein were from the original F2 hybrid strain (129/SvXC57BL/6J) that contained the mutated DJ-1 allele (DJ-1−/−) backcrossed to wild-type C57BL/6J for >20 generations and genotyped. Prior to UUO, ND-13 peptide and scrambled control peptide (3 mg/kg diluted in […] of saline) were injected subcutaneously to C57Bl/6 and DJ-1 knockout mice the day before performing the complete UUO. For UUO surgery, the procedure was performed as follows. Briefly, mice were anesthetized with isofluorane (3-5% for induction and 1-3% for maintenance) and divided into two experimental groups: the UUO group and the sham operation group. In the UUO group, mice were shaved on the left side of the abdomen, a vertical incision was made through the skin with a scalpel and the skin was retracted. A second incision was made through the peritoneum to expose the kidney. The left ureter was ligated twice 15 mm below the renal pelvis with surgical silk and the ureter was then severed between the two ligatures. Then, the ligated kidney was placed gently back into its correct anatomical position and sterile saline was added to replenish loss of fluid. The incisions were sutured and mice were individually caged. Buprenorphine was used as an analgesic. 24 hours after UUO surgery, the ND-13 peptide and scrambled control peptide (3 mg/kg diluted in […] of saline) were injected subcutaneously to C57Bl/6 and DJ-1 knockout mice and then injected every day thereafter for 14 days following UUO. Untreated normal C57Bl/6 mice served as a control. After 14 days, urine was collected and the mice were sacrificed. Tissues, including the kidneys, were obtained for analyses.
# (§3) Next, the effect of ND-13 on mRNA expression of inflammatory and fibrotic markers in the kidneys of mice with UUO was tested. Briefly, RNA was extracted from whole renal tissue harvested from ND-13-treated C57Bl/6 and DJ-1 knockout mice 14 days after the UUO procedure. RNA extracted from untreated C57Bl/6 mice served as the control. The extracted RNA was subjected to qRT-PCR using standard methods. The mRNA expression of TNF-alpha (tumor necrosis factor alpha), IL-6 (Interleukin 6), Col1a1 (collagen, type I, alpha 1) and TGF-beta (transforming growth factor beta) were quantified by qRT-PCR in mice from each group. Data were normalized by expression of the house keeping gene GAPDH (glyceraldehyde 3-phosphate dehydrogenase). […] The increased renal expressions of TNF alpha and IL-6, and TGF-beta associated with UUO was decreased by ND-13 in both C57Bl/6 mice (FIGS. 3A, 3B, and 3D) and DJ-1 knockout mice (FIGS. 3E, 3F, and […]).
# [5] = system: TNF-alpha, IL-6, Col1a1 and TGF-beta mRNA in kidneys of DJ-1 knockout mice with UUO; assay: as above; conditions: 14 days after UUO, normalized by GAPDH
# From the text: as §2, §3
sequence,measurement,setting,value
YGRKKRRKGAEEMETVIPVD [ND-13],"renal interstitial fibrosis (collagen, Sirius Red staining)",[1],prevented fibrosis
same,urinary NGAL (marker of renal damage),[2],decreased urinary NGAL to control levels
same,urinary NGAL (marker of renal damage),[3],not protected
same,renal mRNA expression of Col1a1,[4],decreased
same,renal mRNA expression of IL-6,[4],decreased
same,renal mRNA expression of TGF-beta,[4],decreased
same,renal mRNA expression of TNF-alpha,[4],decreased
same,renal mRNA expression of Col1a1,[5],not DJ-1 knockout mice
same,renal mRNA expression of IL-6,[5],decreased
same,renal mRNA expression of TGF-beta,[5],decreased
same,renal mRNA expression of TNF-alpha,[5],decreased
